The record followed here is US11161823B2, “Anticancer 1,3-dioxane-4,6-dione derivatives and method of combinatorial synthesis thereof” (National Guard Health Affairs, priority 2019, dated 2021).

As usually defined, the IC50 is the point on the concentration scale where inhibition reaches its midpoint.

For test [1], the system named is HCT116 (Colon). Kind of test: MTT cell proliferation assay, HCT116. The class given is cell-based, human. The conditions noted are these: read-out: IC50 μM HCT116 (Colon). Here is the method:
(§1) Cell Culture: The human breast cancer epithelial cell lines MDA-MB-231 (HTB-26™), MCF-7 (HTB-22™), colon cancer cell lines HCT 116 (CCL-247™) and […] (CCL-244™) were obtained from American Type Culture Collection (ATCC). Additionally, KAIMRC1 cell line was isolated and developed at KAIMRC from a breast cancer patient. All the cells were grown in advanced DMEM containing 10% fetal bovine serum (FBS), 50 units/mL penicillin, 50 ug/mL streptomycin (GIBCO), and 2 mM glutamine (GIBCO). The cells were cultured at 37° C. in a humidified 5% CO2 atmosphere for 24 hours before experimental procedure.
(§2) Cell Proliferation Assay (MTT): Cells were plated on flat-bottom 96-well plates at a density of 5×10^3 cells/well in 100 μL growth medium. Serial dilutions of the compounds, ranging from 100 nM-100 μM were tested on the cells in triplicates. Additional rows with only the compounds and only cells were added in order to account for the compounds and cells effect. Cells were incubated with compounds for 48 h at 37° C. with 5% CO2.
(§3) After 48 h treatment, the cell viability was determined using the MTT viability assay. Briefly, 5 μL of MTT reagent (5 mg/mL stock) per 95 μl cell culture medium was added to each well and incubated for 3 h at 37° C. with 5% CO2. After 3 h the supernatant was removed, and the MTT formazan crystals were dissolved in dimethyl sulfoxide (DMSO) by shaking the plate for 30 mins at RT. The absorbance was measured on Molecular Devices microplate absorbance reader at 560 nm. The percentage of viable cells was calculated as the ratio of the absorbance of the treated group divided by the absorbance of the control group multiplied by 100. The absorbance from the untreated control cells was set as 100% viable. IC50 values were calculated from dose-response curves generated using a polynomial dose-response approximation using Prism 8 software. The IC50 values (µM) obtained for the compounds of present invention on MDA-MD 231 (breast), MCF-7 (breast), KAIMRC1 (breast), HCT116 (colon) and HCT8 (colon) are summarized in Table 5 and 6.

The test system of test [2] is MDA MB-231 cell line (Breast). The test can be described thus: MTT cell proliferation assay, MDA MB-231. The conditions noted are these: read-out: IC50 μM MDA MB-231 (Breast). It is filed as cell-based, human. As for the experimental part:
as §1, §2, §3

In test [3] the test system is MCF-7 (Breast). The test can be described thus: MTT cell proliferation assay, MCF-7. The conditions noted are these: read-out: IC50 μM MCF-7 (Breast). The class given is cell-based, human. As for the experimental part: as §1, §2, §3
(Formazan colour is commonly taken as a measure of viable cells.)

In test [4] the test system is KAIMRC1 (Breast). Kind of test: MTT cell proliferation assay, KAIMRC1. The class given is cell-based, human. As to conditions: read-out: IC50 μM KAIMRC1 (Breast).
Excerpt: The immortalized cell lines included in the testing panel of this disclosure are MCF7 (a breast cancer cell line), MCF10 (immortalized human breast epithelial cells), MDA-MB231 (an epithelial, human breast cancer cell line that was established from a pleural effusion of a patient with a metastatic mammary adenocarcinoma), KAIMRC1 (a naturally immortalized human breast carcinoma cell line), KAIMRC2 (a naturally immortalized breast cancer cell line). The primary cells available for lead toxicity assays are, without limitation: hepatocytes (supplied by Xenotech, Bioscience Lonza, Accegen, Biocompare, Gibco, Zen-Bio, Takarabio, AxolBio, Creative Bioarray), cardiomyocytes (supplied by Cellartis, Axolbio, Cedarlanelabs, EMD Millipore, Takara Bio, Neuromics, AcceGene), primary neurons (AcceGen, Cellapplications, Neuromics, Biocompare, AxolBio, BrainXcell), endothelial lining (Thermofisher, Accegen, Biocompare, Promocell, ATCC). Multicellular 3D organoids raised by differentiating iPSC (induced pluripotent stem cells) are provided by Sigma Aldrich (the iPSC cell lines, organoids), Tocris Bioscience, Thermofisher, Stemcell Technologies, Takara Bio, Emulatebio (Human organ chips), Prodolabs.
as §1, §2, §3

For test [5], the system named is ThP1 (leukemia). Kind of test: Cell Titre Glo luminescent cell viability assay, ThP1. The class given is cell-based. The conditions noted are these: Cell Titre Glo luminescence, normalized to DMSO controls.
Excerpt: (§4) Another embodiment discloses Titer Glo Assay for the characterization of the synthesized compounds. The CellTiter-Glo® Luminescent Cell Viability Assay is a homogeneous method of determining the number of viable cells in culture based on quantitation of the ATP present, an indicator of metabolically active cells. The CellTiter-Glo® Assay is designed for use with multiwell formats, making it ideal for automated high-throughput screening (HTS), cell proliferation, and cytotoxicity assays. The homogeneous assay procedure involves adding the single reagent (CellTiter-Glo® Reagent) directly to cells cultured in serum-supplemented medium. Cell washing, removal of medium, and multiple pipetting steps are not required. The system detects as few as 15 cells/well in a 384-well format in 10 minutes after adding reagent and mixing.
as §1
(§5) Cell Titre Glo assay was performed on two Leukemia cell lines, HL 60 and ThP1 as per manufacturer's (Promega) recommendations. Briefly, plates were prepared as mentioned in cell culture section. 100 µL of Cell Titre Glo was added directly to the wells. After incubation for 30 minutes at room temperature, luminescence was measured using the Envision plate reader (Perkin Elmer). Luminescence readings were normalized to averaged DMSO controls and expressed as relative percentage. IC50 values were calculated from dose-response curves generated using a polynomial dose-response approximation using Prism 8 software.

In test [6] the test system is HCT 8 (Colon). Kind of test: MTT cell proliferation assay, HCT 8. It is filed as cell-based, human. As to conditions: read-out: IC50 μM HCT 8 (Colon). Here is the method:
as §1, §2, §3

Test [7] concerns HL 60 (leukemia). The test can be described thus: Cell Titre Glo luminescent cell viability assay, HL 60. The class given is cell-based. The conditions noted are these: Cell Titre Glo luminescence, normalized to DMSO controls.
Excerpt: as §4, §1, §5

[8] abbreviates: Homo sapiens, MDA-MB-231, MTT, 48 h treatment, medium with 10% FBS.
Where [9] appears, read: Homo sapiens, HCT-116, MTT, 48 h treatment, medium with 10% FBS.
Where [10] appears, read: Homo sapiens, HCT-8, MTT, 48 h treatment, medium with 10% FBS.
Where [11] appears, read: Homo sapiens, MCF7, MTT, 48 h treatment, medium with 10% FBS.
The mark [12] stands for this setting: Homo sapiens, MTT, 48 h treatment, medium with 10% FBS.
Where [13] appears, read: MTT, 48 h treatment, medium with 10% FBS.

Like-named read-outs stand apart in the source and are kept apart here.

Take `O=C1NC(=O)C(=C/C=C/c2c3ccccc3cc3ccccc23)C(=O)N1` [Example 1, 5-(3-ANTHRACEN-9-YL-ALLYLIDENE)-PYRIMIDINE-2,4,6-TRIONE]: the IC50 was 27.1 µM in test [1] (Homo sapiens, HCT-116, 48 h); 52 µM in test [2] (Homo sapiens, MDA-MB-231, 48 h); 10.5 µM in test [3] (Homo sapiens, MCF7, 48 h).
For `CCC1(C)OC(=O)C(=C/C=C/c2c3ccccc3cc3ccccc23)C(=O)O1` (stereo not shown) [Example 2, 5-(3-ANTHRACEN-9-YL-ALLYLIDENE)-2-ETHYL-2-METHYL-[1,3]DIOXANE-4,6-DIONE], in test [2] (setting [8]), the IC50 was 25.2 µM.
For `O=C1NC(=O)C(=C/C=C/c2ccnc3ccccc23)C(=O)N1` [Example 6, 5-(3-QUINOLIN-4-YL-ALLYLIDENE)-PYRIMIDINE-2,4,6-TRIONE], the IC50 is 21.2 µM in test [2] (Homo sapiens, MDA-MB-231, 48 h); 31.9 µM in test [3] (Homo sapiens, MCF7, 48 h); 18 µM in test [4] (Homo sapiens, 48 h).
For `CC1(C)OC(=O)C(=CC=Cc2ccnc3ccccc23)C(=O)O1` [Example 11, 2,2-DIMETHYL-5-(3-QUINOLIN-4-YL-ALLYLIDENE)-[1,3]DIOXANE-4,6-DIONE], the IC50 in test [1] (setting [9]) turned out to be 10.4 µM; in test [5] (Homo sapiens, THP-1), 1.68 µM; in test [6] (setting [10]) it was 14.1 µM; in test [2] (setting [8]) it was 14.1 µM; in test [3] (setting [11]), 19.7 µM; in test [4] (setting [12]), 33.2 µM. The compound also returned an IC50 in test [7] (Homo sapiens, HL-60) of 1.86 µM.
As to `CCCC1(C)OC(=O)C(=CC=Cc2ccnc3ccccc23)C(=O)O1` (stereo not shown) [Example 14, 2-METHYL-2-PROPYL-5-(3-QUINOLIN-4-YL-ALLYLIDENE)-[1,3]DIOXANE-4,6-DIONE], the half-inhibitory concentration (IC50) in test [1] (setting [9]) was 15.4 µM; in test [6] (setting [10]), 18.9 µM; in test [2] (setting [8]), 15.5 µM; in test [3] (setting [11]), 15.2 µM; in test [4] (setting [12]), 27.6 µM.
Turning to `O=C1OC2(CCC2)OC(=O)C1=CC=Cc1ccnc2ccccc12` [Example 15, 7-(3-QUINOLIN-4-YL-ALLYLIDENE)-5,9-DIOXA-SPIRO[3.5]NONANE-6,8-DIONE], the IC50 in test [2] (setting [8]) turned out to be 7.84 µM.
Turning to `O=C1OC2(CCC2)OC(=O)C1=CC=Cc1cncc2ccccc12` [Example 16, 7-(3-ISOQUINOLIN-4-YL-ALLYLIDENE)-5,9-DIOXA-SPIRO[3.5]NONANE-6,8-DIONE], the IC50 in test [1] (setting [9]) was 8.04 µM; in test [6] (setting [10]), 6.01 µM; in test [3] (setting [11]) it was 5.44 µM; in test [4] (setting [12]), 8.09 µM.
Turning to `O=C1OC2(CCCCC2)OC(=O)C1=CC=Cc1ccnc2ccccc12` [Example 17, 3-(3-QUINOLIN-4-YL-ALLYLIDENE)-1,5-DIOXA-SPIRO[5.5]UNDECANE-2,4-DIONE], the IC50 in test [1] (setting [9]) turned out to be 13.7 µM; in test [6] (setting [10]), 12.9 µM; in test [2] (setting [8]), 13 µM; in test [3] (setting [11]), 17.3 µM; in test [4] (setting [12]) it was 19.6 µM.
Take `CC1(C)OC(=O)C(=CC=Cc2cccc3ccccc23)C(=O)O1` [Example 18, 2,2-DIMETHYL-5-(3-NAPHTHALEN-1-YL-ALLYLIDENE)-[1,3]DIOXANE-4,6-DIONE]: the IC50 in test [6] (setting [10]) amounted to 5.78 µM; in test [4] (setting [12]) it was 6.54 µM.
For `CCC1(C)OC(=O)C(=CC=Cc2cccc3ccccc23)C(=O)O1` (stereo not shown) [Example 19, 2 ETHYL,2-METHYL-5-(3-NAPHTHALEN-1-YL-ALLYLIDENE)-[1,3]DIOXANE-4,6-DIONE], the IC50 was 2.44 µM in test [1] (setting [9]); 2.95 µM in test [6] (setting [10]); 5.92 µM in test [2] (setting [8]); 5.82 µM in test [3] (setting [11]); 5.82 µM in test [4] (setting [12]).
For `O=C1OC2(CCC2)OC(=O)C1=CC=Cc1cccc2ccccc12` [Example 20, 7-(3-NAPHTHALEN-1-YL-ALLYLIDENE)-5,9-DIOXA-SPIRO[3.5]NONANE-6,8-DIONE], the IC50 is 4.84 µM in test [1] (setting [9]); 2.04 µM in test [5] (Homo sapiens, THP-1); 3.87 µM in test [6] (setting [10]); 4.24 µM in test [3] (setting [11]); 11.9 µM in test [4] (setting [12]); 2.41 µM in test [7] (Homo sapiens, HL-60).
For `CCC1(C)OC(=O)C(=CC=Cc2ccc(OC)c3ccccc23)C(=O)O1` (stereo not shown) [Example 21, 2-ETHYL-5-[3-(4-METHOXY-NAPHTHALEN-1-YL)-ALLYLIDENE]-2-METHYL-[1,3]DIOXANE-4,6-DIONE], the IC50 in test [1] (setting [9]) is 50 µM; in test [2] (setting [8]), 17 µM.
For `CC1(C)OC(=O)C(=CC#Cc2cccc3ccccc23)C(=O)O1` [Example 28, 2,2-DIMETHYL-5-(3-NAPHTHALEN-1-YL-PROP-2-YNYLIDENE)-[1,3]DIOXANE-4,6-DIONE], the IC50 came out at 8.82 µM in test [6] (Homo sapiens, HCT-8, 48 h) and 7.36 µM in test [4] (Homo sapiens, 48 h).
For `CC1(C)OC(=O)C(=CC=Cc2cccc3occc23)C(=O)O1` [Example 32, 5-(3-BENZOFURAN-4-YL-ALLYLIDENE)-2,2-DIMETHYL-[1,3]DIOXANE-4,6-DIONE], the IC50 in test [1] (setting [9]) is 34.2 µM; in test [2] (setting [8]), 7.5 µM.
For the compound `O=C1c2c(O)ccc(O)c2C(=O)c2c(NCCNCCO)ccc(NCCNCCO)c21` [Mitoxanthrone, reference compound], the IC50 was found to be 0.71 µM in test [1] (setting [13]); 0.22 µM in test [5]; 1.25 µM in test [6] (setting [13]); 0.51 µM in test [2] (setting [13]); 3.61 µM in test [3] (setting [13]); 10.1 µM in test [4] (setting [13]). The compound also registered an IC50 in test [7] of 0.7 µM.
